Measured values from patent US11414387B2, “Oxoacridinyl acetic acid derivatives and methods of use” (Stingthera, Inc., priority 2017, dated 2022).

What was measured:
hSTING-R232 = hSTING-R232 (Homo sapiens (Human), UniProt Q86WV6, H232R); experiment: STING differential scanning fluorimetry (DSF) assay, WT human STING; conditions: WT (R232) human STING aa140-379, net shift in melting temperature
hSTING-WT = hSTING-WT (Homo sapiens (Human), UniProt Q86WV6, H232R); experiment: Radiometric filtration binding competition assay, hSTING-WT
STING protein = STING protein (Homo sapiens (Human), UniProt Q86WV6, H232R); experiment: Cell based reporter assay of IRF activation (IRF-luciferase), THP1-dual-KI R232; conditions: read-out: THP1-dual-KI R232_IRF(Luciferase)_Activity Maximum measured (%)
Chain of STING protein (Q86WV6 whole entry H232R): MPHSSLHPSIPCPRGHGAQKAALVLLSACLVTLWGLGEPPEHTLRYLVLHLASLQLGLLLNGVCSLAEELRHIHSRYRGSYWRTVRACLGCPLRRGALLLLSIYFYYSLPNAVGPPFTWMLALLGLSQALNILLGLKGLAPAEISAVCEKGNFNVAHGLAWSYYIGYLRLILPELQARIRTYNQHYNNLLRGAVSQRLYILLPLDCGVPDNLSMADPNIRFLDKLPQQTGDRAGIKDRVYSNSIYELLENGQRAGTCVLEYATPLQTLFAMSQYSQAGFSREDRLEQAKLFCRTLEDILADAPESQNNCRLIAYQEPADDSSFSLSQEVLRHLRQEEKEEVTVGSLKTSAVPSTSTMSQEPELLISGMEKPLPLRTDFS

Chain of hSTING-R232 (Q86WV6 140-379 H232R): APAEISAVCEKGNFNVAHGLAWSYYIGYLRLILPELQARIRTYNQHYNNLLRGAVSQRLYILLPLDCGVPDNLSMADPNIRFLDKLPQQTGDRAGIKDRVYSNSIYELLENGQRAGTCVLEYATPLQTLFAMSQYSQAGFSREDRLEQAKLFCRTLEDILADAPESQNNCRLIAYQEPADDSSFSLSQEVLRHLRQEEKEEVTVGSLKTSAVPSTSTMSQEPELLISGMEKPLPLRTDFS
Chain of hSTING-WT (Q86WV6 140-379 H232R): as above

| Compound | WT_DSF_hSWAT Tm Shift (° C.) (hSTING-R232) | IC50 (hSTING-WT) [µM] | Emax (STING protein) [%] |
| --- | --- | --- | --- |
| C[C@@H](C(=O)O)n1c2ccccc2c(=O)c2ccc(Cl)c(Cl)c21 [Compound 100] | A (“A” < 0° C.) | > 300 |  |
| C[C@H](C(=O)O)n1c2ccccc2c(=O)c2ccc(Cl)c(Cl)c21 [Compound 101] | A (“A” < 0° C.) | > 300 |  |
| Cc1ccc2c(=O)c3ccc(Cl)c(Cl)c3n(CC(=O)O)c2c1C [Compound 134] | A (“A” < 0° C.) | 20 to 100 | < 5 |
| CN(C)c1c(Cl)ccc2c(=O)c3ccccc3n(CC(=O)O)c12 [Compound 136] | D (“D” > 7° C.) | 20 to 100 |  |
| CSc1ccc2c(=O)c3ccc(Cl)c(Cl)c3n(CC(=O)O)c2c1 [Compound 137] | C (“C” = 2-7° C,) | 100 to 300 | 25 to 50 |
| CC(C)Sc1ccc2c(=O)c3ccc(Cl)c(Cl)c3n(CC(=O)O)c2c1 [Compound 149] | C (“C” = 2-7° C,) | 100 to 300 | < 5 |
| O=C(O)Cn1c2cc(C(F)F)ccc2c(=O)c2ccc(Cl)c(Cl)c21 [Compound 166] | B (“B” = 0-2° C.) | > 300 |  |
| O=C(O)Cn1c2cc(C(O)(C(F)(F)F)C(F)(F)F)ccc2c(=O)c2ccc(Cl)c(Cl)c21 [Compound 167] | A (“A” < 0° C.) | > 300 |  |
| CC(C)(O)c1ccc2c(=O)c3ccc(Cl)c(Cl)c3n(CC(=O)O)c2c1 [Compound 168] | A (“A” < 0° C.) | 100 to 300 |  |
| O=C(O)Cn1c2cc(-c3cc[nH]n3)ccc2c(=O)c2ccc(Cl)c(Cl)c21 [Compound 182] | C (“C” = 2-7° C,) | 100 to 300 |  |
| Cn1ccc(-c2ccc3c(=O)c4ccc(Cl)c(Cl)c4n(CC(=O)O)c3c2)n1 [Compound 184] | C (“C” = 2-7° C,) | > 300 |  |
| O=C(O)Cn1c2cc(-c3ccco3)ccc2c(=O)c2ccc(Cl)c(Cl)c21 [Compound 186] | C (“C” = 2-7° C,) | 20 to 100 | 25 to 50 |
| O=C(O)Cn1c2cc(-c3nccs3)ccc2c(=O)c2ccc(Cl)c(Cl)c21 [Compound 187] | B (“B” = 0-2° C.) | 100 to 300 |  |
| Cn1ccnc1-c1ccc2c(=O)c3ccc(Cl)c(Cl)c3n(CC(=O)O)c2c1 [Compound 188] | A (“A” < 0° C.) | > 300 |  |
| O=C(O)Cn1c2cc(-c3cccnc3)ccc2c(=O)c2ccc(Cl)c(Cl)c21 [Compound 190] | C (“C” = 2-7° C,) | > 300 |  |
| CC(O)c1ccc2c(=O)c3ccc(Cl)c(Cl)c3n(CC(=O)O)c2c1 (centres unmarked) [Compound 191] | B (“B” = 0-2° C.) | > 300 |  |
| CC(C)c1ccc2c(=O)c3ccc(I)c(Cl)c3n(CC(=O)O)c2c1 [Compound 195] | C (“C” = 2-7° C,) | > 300 |  |
| CSc1ccc2c(=O)c3ccc(Cl)c(Br)c3n(CC(=O)O)c2c1 [Compound 196] | D (“D” > 7° C.) | 20 to 100 |  |
| O=C(O)Cn1c2cc(N3CCCC3)ccc2c(=O)c2ccc(Cl)c(Br)c21 [Compound 201] | C (“C” = 2-7° C,) | 100 to 300 | 5 to 25 |
| C[C@H]1CCCN1c1ccc2c(=O)c3ccc(Cl)c(Br)c3n(CC(=O)O)c2c1 [Compound 202] | C (“C” = 2-7° C,) | 20 to 100 | 5 to 25 |
| C[C@@H]1CCCN1c1ccc2c(=O)c3ccc(Cl)c(Br)c3n(CC(=O)O)c2c1 [Compound 203] | C (“C” = 2-7° C,) | 20 to 100 | > 50 |
| O=C(O)CCCn1c2ccccc2c(=O)c2ccc(Cl)c(Cl)c21 [Compound 205] | A (“A” < 0° C.) | > 300 |  |
| O=C(O)Cn1c2ccccc2c2ccc(Cl)c(Cl)c21 [Compound 209] | A (“A” < 0° C.) | > 300 |  |
| CC(C)c1ccc2c3ccc(Cl)c(Cl)c3n(CC(=O)O)c2c1 [Compound 210] | A (“A” < 0° C.) | 20 to 100 | < 5 |

| Compound | WT_DSF_hSWAT Tm Shift (° C.) (hSTING-R232) | IC50 (hSTING-WT) [µM] | Emax (STING protein) [%] |
| --- | --- | --- | --- |
| O=C(O)Cn1c2cc(C3CCC(O)CC3)ccc2c(=O)c2ccc(Cl)c(Cl)c21 (centres unmarked) [Compound 214] | D (“D” > 7° C.) | 20 to 100 |  |
| CCOc1c(Cl)ccc2c(=O)c3ccc(C(C)(C)C)cc3n(CC(=O)O)c12 [Compound 224] |  | 20 to 100 |  |
| COc1c(Cl)ccc2c(=O)c3ccc(C4CCCNC4)cc3n(CC(=O)O)c12 (centres unmarked) [Compound 227] | C (“C” = 2-7° C,) | > 300 | < 5 |
| COc1c(Cl)ccc2c(=O)c3ccc(SC4CCCCC4)cc3n(CC(=O)O)c12 [Compound 233] | D (“D” > 7° C.) | < 20 | > 50 |
| COc1c(Cl)ccc2c(=O)c3ccc(Nc4ccc(O)cc4)cc3n(CC(=O)O)c12 [Compound 236] | D (“D” > 7° C.) | < 20 |  |
| COc1c(Cl)ccc2c(=O)c3ccc(-c4cccc(C)c4)cc3n(CC(=O)O)c12 [Compound 238] | D (“D” > 7° C.) | < 20 | > 50 |
| CC(C)c1ccc2c(c1)c1ccc(Cl)c(Cl)c1n2CC(=O)O [Compound 240] |  | 20 to 100 |  |
| COc1c(Cl)ccc2c(=O)c3ccc(C(C)C)cc3n(CC(=O)O)c12 [Compound 245] | D (“D” > 7° C.) | 20 to 100 |  |
| CC(C)Oc1c(Cl)ccc2c(=O)c3ccccc3n(CC(=O)O)c12 [Compound 246] | C (“C” = 2-7° C,) | 100 to 300 |  |
| O=C(O)Cn1c2ccccc2c(=O)c2ccc(Cl)c(OC3CCC3)c21 [Compound 247] | A (“A” < 0° C.) | 100 to 300 |  |
| COc1c(Cl)ccc2c(=O)c3cc(F)c(C(C)C)cc3n(CC(=O)O)c12 [Compound 248] | B (“B” = 0-2° C.) | > 300 |  |
| COc1c(Cl)ccc2c(=O)c3ccc(S(C)(=O)=O)cc3n(CC(=O)O)c12 [Compound 249] | B (“B” = 0-2° C.) | > 300 |  |
| COc1c(Cl)ccc2c(=O)c3ccc(C4=CCCOC4)cc3n(CC(=O)O)c12 [Compound 252] | D (“D” > 7° C.) | 20 to 100 |  |
| COc1c(Cl)ccc2c(=O)c3ccc(C4=CCOCC4)cc3n(CC(=O)O)c12 [Compound 254] | D (“D” > 7° C.) | 20 to 100 | > 50 |
| COc1c(Cl)ccc2c(=O)c3ccc(C4CCOCC4)cc3n(CC(=O)O)c12 [Compound 255] | C (“C” = 2-7° C,) | 20 to 100 |  |
| O=C(O)Cn1c2cc(Nc3cnc(Cl)cn3)ccc2c(=O)c2ccc(Cl)c(Cl)c21 [Compound 258] | D (“D” > 7° C.) | 20 to 100 | < 5 |
| CSc1c(Cl)ccc2c(=O)c3ccc(Nc4ccc(F)cc4)cc3n(CC(=O)O)c12 [Compound 259] | D (“D” > 7° C.) | < 20 |  |
| O=C(O)Cn1c2cc(C3CCC(O)CC3)ccc2c(=O)c2ccc(Cl)c(Cl)c21 (centres unmarked) [Compound 264] | C (“C” = 2-7° C,) |  | 5 to 25 |
| O=C(O)Cn1c2cc([C@H]3CC[C@H](O)CC3)ccc2c(=O)c2ccc(Cl)c(Cl)c21 [Compound 264] |  | < 20 |  |
| COc1ccc2c(=O)c3ccccc3n(CC(=O)O)c2c1OC [Compound 265] | B (“B” = 0-2° C.) | > 300 | < 5 |
| COc1c(Cl)ccc2c(=O)c3ccc(-c4ccoc4)cc3n(CC(=O)O)c12 [Compound 277] | D (“D” > 7° C.) | < 20 | > 50 |
| COc1c(Cl)ccc2c(=O)c3ccc(-c4ccncc4)cc3n(CC(=O)O)c12 [Compound 278] | D (“D” > 7° C.) | 20 to 100 | > 50 |
| COc1c(Cl)ccc2c(=O)c3ccc(C)cc3n(CC(=O)O)c12 [Compound 280] | D (“D” > 7° C.) | 20 to 100 | > 50 |
| O=C(Cn1c2ccccc2c(=O)c2ccc(Cl)c(Cl)c21)NO [Compound 353] | A (“A” < 0° C.) | 100 to 300 |  |
